Measurements published in US8343973B2, “Phenoxymethyl heterocyclic compounds” (EnVivo Pharmaceuticals, Inc., priority 2009, dated 2013).

Tests used:
Human PDE10A1 = Human PDE10A1 (Homo sapiens, UniProt Q9Y233); assay: hPDE10A1 enzyme inhibition ([3H]-cAMP hydrolysis, scintillation); type: biochemical; conditions: Human PDE10A1, [3H]-cAMP substrate; read-out: hPDE10A1 IC50 Band
Method: hPDE10A1 Enzyme Activity: 50 μl samples of serially diluted Human PDE10A1 enzyme were incubated with 50 μl of [^3H]-cAMP for 20 minutes (at 37° C.). Reactions were carried out in Greiner 96 deep well 1 ml master-block. The enzyme was diluted in 20 mM Tris HCl pH7.4 and [^3H]-cAMP was diluted in 10 mM MgCl2, 40 mM Tris.HCl pH 7.4. The reaction was terminated by denaturing the PDE enzyme (at 70° C.) after which [^3H]-5′-AMP was converted to [^3H]-adenosine by adding 25 μl snake venom nucleotidase and incubating for 10 minutes (at 37° C.). Adenosine, being neutral, was separated from charged cAMP or AMP by the addition of 200 μl Dowex resin. Samples were shaken for 20 minutes then centrifuged for 3 minutes at 2,500 r.p.m. 50 μl of supernatant was removed and added to 200 μl of MicroScint-20 in white plates (Greiner 96-well Optiplate) and shaken for 30 minutes before reading on Perkin Elmer TopCount Scintillation Counter.
hPDE10A1 Enzyme Inhibition: To check inhibition profile 11 μl of serially diluted inhibitor was added to 50 μl of [^3H]-cAMP and 50 ul of diluted Human PDE10A1 and assay was carried out as in the enzyme activity assay. Data was analysed using Prism software (GraphPad Inc).

[1] = rats; cited from earlier work

Sequence of Human PDE10A1 (Q9Y233 1-779 isoform Q9Y233-1): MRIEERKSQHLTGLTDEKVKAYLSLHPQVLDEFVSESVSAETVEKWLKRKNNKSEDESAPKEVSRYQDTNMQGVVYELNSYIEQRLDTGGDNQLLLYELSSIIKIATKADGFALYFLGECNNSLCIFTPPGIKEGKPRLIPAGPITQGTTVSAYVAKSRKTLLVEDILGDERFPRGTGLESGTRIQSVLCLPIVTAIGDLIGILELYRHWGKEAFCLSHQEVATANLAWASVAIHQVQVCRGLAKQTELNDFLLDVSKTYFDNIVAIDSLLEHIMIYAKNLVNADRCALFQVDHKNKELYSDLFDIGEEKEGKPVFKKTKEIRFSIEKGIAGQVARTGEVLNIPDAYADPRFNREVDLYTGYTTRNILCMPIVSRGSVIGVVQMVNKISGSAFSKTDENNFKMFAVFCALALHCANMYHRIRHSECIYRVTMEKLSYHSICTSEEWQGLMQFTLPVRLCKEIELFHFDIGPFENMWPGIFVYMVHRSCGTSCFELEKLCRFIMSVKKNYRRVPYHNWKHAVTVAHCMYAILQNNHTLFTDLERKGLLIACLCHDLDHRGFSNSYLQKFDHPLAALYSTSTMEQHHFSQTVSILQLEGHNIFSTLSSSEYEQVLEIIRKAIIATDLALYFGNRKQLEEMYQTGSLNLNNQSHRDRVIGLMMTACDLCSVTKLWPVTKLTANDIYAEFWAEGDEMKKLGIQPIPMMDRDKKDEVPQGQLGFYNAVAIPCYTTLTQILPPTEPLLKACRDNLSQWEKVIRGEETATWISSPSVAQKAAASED

Row | SMILES | IC50 (Human PDE10A1) | further results
1 | COc1ccc(C2=C(c3ccc(OCc4nc5ccccn5c4C)cc3)C(=O)C(C)(C)O2)cc1 [5-(4-Methoxyphenyl)-2,2-dimethyl-4-(4-((3-methylimidazo[1,2-a]pyridin-2-yl)methoxy)phenyl)furan-3(2H)-one] | 10 to 50 nM | –
2 | COc1ccc(Cc2nccc3cc(OC)c(OC)cc23)cc1OC [papaverine] | – | apomorphine induced stereotypes [1]: reduces; haloperidol induced catalepsy [1]: increases; rat brain dopamine levels [1]: reduces
3 | COc1ccc(C2=C(c3ccc(OCc4cn5nc(Cl)ccc5n4)cc3)C(=O)C(C)(C)O2)cc1 [4-(4-((6-chloroimidazo[1,2-b]pyridazin-2-yl)methoxy)phenyl)-5-(4-methoxyphenyl)-2,2-dimethylfuran-3(2H)-one] | 10 to 50 nM | –
4 | COc1ccc(C2=C(c3ccc(OCc4nc5ccccn5c4Cl)cc3)C(=O)C(C)(C)O2)cc1 [4-(4-((3-chloroimidazo[1,2-a]pyridin-2-yl)methoxy)phenyl)-5-(4-methoxyphenyl)-2,2-dimethylfuran-3(2H)-one] | ≤ 10 nM | –
5 | CC1(C)OC(c2ccc(C#N)cc2)=C(c2ccc(OCc3cn4ccccc4n3)cc2)C1=O [4-(3-(4-(imidazo[1,2-a]pyridin-2-ylmethoxy)phenyl)-5,5-dimethyl-4-oxo-4,5-dihydrofuran-2-yl)benzonitrile] | ≤ 10 nM | –
6 | COc1ccc(C2=C(c3ccc(OCc4cn5ncccc5n4)cc3)C(=O)C(C)(C)O2)cc1 [4-(4-(imidazo[1,2-b]pyridazin-2-ylmethoxy)phenyl)-5-(4-methoxyphenyl)-2,2-dimethylfuran-3(2H)-one] | ≤ 10 nM | –
7 | COc1ccc(C2=C(c3ccc(OCc4ccc5nccn5n4)cc3)C(=O)C(C)(C)O2)cc1 [4-(4-(imidazo[1,2-b]pyridazin-6-ylmethoxy)phenyl)-5-(4-methoxyphenyl)-2,2-dimethylfuran-3(2H)-one] | 10 to 50 nM | –

More lines, main results first:

Row | IC50 (Human PDE10A1) | SMILES | further results
8 | ≤ 10 nM | COc1ccc(C2=C(c3ccc(OCc4cn5c(C)cccc5n4)cc3)C(=O)C(C)(C)O2)cc1 [5-(4-Methoxyphenyl)-2,2-dimethyl-4-(4-((5-methylimidazo[1,2-a]pyridin-2-yl)methoxy)phenyl)furan-3(2H)-one] | –
9 | ≤ 10 nM | COc1ccc(C2=C(c3ccc(OCc4cn5ccccc5n4)cc3)C(=O)C(C)(C)O2)cc1 [4-(4-(imidazo[1,2-a]pyridin-2-ylmethoxy)phenyl)-5-(4-methoxyphenyl)-2,2-dimethylfuran-3(2H)-one] | –
10 | ≤ 10 nM | COc1ccc(C2=C(c3ccc(OCc4ncc(C)cc4C)cc3)C(=O)C(C)(C)O2)cc1 [4-(4-((3,5-dimethylpyridin-2-yl)methoxy)phenyl)-5-(4-methoxyphenyl)-2,2-dimethylfuran-3(2H)-one] | –
11 | ≤ 10 nM | Cc1ccc(COc2ccc(C3=C(c4ccc(C#N)cc4)OC(C)(C)C3=O)cc2)nc1 [4-(5,5-dimethyl-3-(4-((5-methylpyridin-2-yl)methoxy)phenyl)-4-oxo-4,5-dihydrofuran-2-yl)benzonitrile] | –
12 | ≤ 10 nM | COc1ccc(C2=C(c3ccc(OCc4ccc(C)cn4)cc3)C(=O)C(C)(C)O2)cc1 [5-(4-methoxyphenyl)-2,2-dimethyl-4-(4-((5-methylpyridin-2-yl)methoxy)phenyl)furan-3(2H)-one] | –
13 | ≤ 10 nM | COc1ccc(C2=C(c3ccc(OCc4cn5cc(Cl)ccc5n4)cc3)C(=O)C(C)(C)O2)cc1 [4-(4-((6-Chloroimidazo[1,2-a]pyridin-2-yl)methoxy)phenyl)-5-(4-methoxyphenyl)-2,2-dimethylfuran-3(2H)-one] | –
